Experimental data: ChEMBL document CHEMBL4392882, “Glycosidic Acids with Unusual Aglycone Units from Convolvulus arvensis” (J Nat Prod, 2019)
Active and inactive are the calls of the source.

What was measured:
Type in all cases: functional, cell-based
MCF7 [1] = test: Cytotoxicity in human MCF7 cells assessed as reduction in cell viability up to 50 uM by MTT assay
MCF7 [2] = test: Inhibition of cell migration of human MCF7 cells up to 50 uM by wound healing assay
HeLa = test: Cytotoxicity in human HeLa cells assessed as reduction in cell viability up to 50 uM by MTT assay
A549 = test: Cytotoxicity in human A549 cells assessed as reduction in cell viability up to 50 uM by MTT assay
Bel-7402 = test: Cytotoxicity in human Bel7402 cells assessed as reduction in cell viability up to 50 uM by MTT assay

CCCCCC[C@@H](CCCCCCCCCC(=O)O)O[C@@H]1O[C@H](C)[C@H](O)[C@H](O)[C@H]1O[C@@H]1O[C@H](CO)[C@@H](O)[C@H](O[C@@H]2O[C@H](CO)[C@@H](O[C@@H]3O[C@H](CO[C@@H]4O[C@H](C)[C@H](O)[C@H](O)[C@H]4O)[C@@H](O)[C@H](O)[C@H]3O)[C@H](O)[C@H]2O)[C@H]1O[C@@H]1O[C@@H](C)[C@H](O)[C@@H](O)[C@H]1O
inactive: Activity (MCF7 [1]) | inhibition (MCF7 [2]) | Activity (HeLa) | Activity (A549) | Activity (Bel-7402)

CCCCCC[C@@H](CCCCCCCCCC(=O)O)O[C@@H]1O[C@H](C)[C@H](O)[C@H](O)[C@H]1O[C@@H]1O[C@H](CO)[C@@H](O)[C@H](O[C@@H]2O[C@H](CO[C@@H]3O[C@H](CO)[C@@H](O[C@@H]4O[C@H](CO)[C@@H](O)[C@H](O)[C@H]4O)[C@H](O)[C@H]3O)[C@@H](O)[C@H](O)[C@H]2O)[C@H]1O[C@@H]1O[C@@H](C)[C@H](O)[C@@H](O)[C@H]1O
inactive: Activity (MCF7 [1]) | inhibition (MCF7 [2]) | Activity (HeLa) | Activity (A549) | Activity (Bel-7402)

CCCCCC[C@@H](CCCCCCCCCC(=O)O)O[C@@H]1O[C@H](C)[C@H](O)[C@H](O)[C@H]1O[C@@H]1O[C@H](CO)[C@@H](O)[C@H](O[C@@H]2O[C@H](CO[C@@H]3O[C@H](CO)[C@@H](O[C@@H]4O[C@H](CO[C@@H]5O[C@H](C)[C@H](O)[C@H](O)[C@H]5O)[C@@H](O)[C@H](O)[C@H]4O)[C@H](O)[C@H]3O)[C@@H](O)[C@H](O)[C@H]2O)[C@H]1O[C@@H]1O[C@@H](C)[C@H](O)[C@@H](O)[C@H]1O
inactive: Activity (MCF7 [1]) | inhibition (MCF7 [2]) | Activity (HeLa) | Activity (A549) | Activity (Bel-7402)

CCCCC[C@@H](CCCCCCCCCC(=O)O)O[C@@H]1O[C@H](C)[C@H](O)[C@H](O)[C@H]1O[C@@H]1O[C@H](CO)[C@@H](O)[C@H](O[C@@H]2O[C@H](CO)[C@@H](O[C@@H]3O[C@H](CO[C@@H]4O[C@H](C)[C@H](O)[C@H](O)[C@H]4O)[C@@H](O)[C@H](O)[C@H]3O)[C@H](O)[C@H]2O)[C@H]1O[C@@H]1O[C@@H](C)[C@H](O)[C@@H](O)[C@H]1O
inactive: Activity (MCF7 [1]) | inhibition (MCF7 [2]) | Activity (HeLa) | Activity (A549) | Activity (Bel-7402)

CCCCC[C@@H](CCCCCCCCCC(=O)O)O[C@@H]1O[C@H](C)[C@H](O)[C@H](O)[C@H]1O[C@@H]1O[C@H](CO)[C@@H](O)[C@H](O[C@@H]2O[C@H](CO[C@@H]3O[C@H](CO)[C@@H](O[C@@H]4O[C@H](CO)[C@@H](O)[C@H](O)[C@H]4O)[C@H](O)[C@H]3O)[C@@H](O)[C@H](O)[C@H]2O)[C@H]1O[C@@H]1O[C@@H](C)[C@H](O)[C@@H](O)[C@H]1O
inactive: Activity (MCF7 [1]) | inhibition (MCF7 [2]) | Activity (HeLa) | Activity (A549) | Activity (Bel-7402)

CCCCC[C@@H](CCCCCCCCCC(=O)O)O[C@@H]1O[C@H](C)[C@H](O)[C@H](O)[C@H]1O[C@@H]1O[C@H](CO)[C@@H](O)[C@H](O[C@@H]2O[C@H](CO[C@@H]3O[C@H](CO)[C@@H](O[C@@H]4O[C@H](CO[C@@H]5O[C@H](C)[C@H](O)[C@H](O)[C@H]5O)[C@@H](O)[C@H](O)[C@H]4O)[C@H](O)[C@H]3O)[C@@H](O)[C@H](O)[C@H]2O)[C@H]1O[C@@H]1O[C@@H](C)[C@H](O)[C@@H](O)[C@H]1O
inactive: Activity (MCF7 [1]) | inhibition (MCF7 [2]) | Activity (HeLa) | Activity (A549) | Activity (Bel-7402)
